Read-outs that look alike come from different tables or passages of the source.
Experiments:
Corticium sasakii = conditions: rice cultivar Tai-Nong 67, protective spray, evaluated after 11 days
Procedure: (§1) 1% by weight of the emulsifier Uniperol® EL (wetting agent having emulsifying and dispersant action based on ethoxylated alkylphenols) was added to this solution, and the mixture was diluted with water to the desired concentration.
(§2) Evaluation is carried out by determining the infected leaf areas in percent. These percentages were converted into efficacies.
(§3) The efficacy (E) is calculated as follows using Abbot's formula:
(§4) α corresponds to the fungicidal infection of the treated plants in % and β corresponds to the fungicidal infection of the untreated (control) plants in %
(§5) An efficacy of 0 means that the infection level of the treated plants corresponds to that of the untreated control plants; an efficacy of 100 means that the treated plants are not infected.
The next day, oat grains infected with Corticium sasakii were placed into the pots (in each case 5 grains per pot). The plants were then placed in a chamber at 26° C. and maximum atmospheric humidity.

Plasmopara viticola = experiment: Activity against Peronospora of grapevines caused by Plasmopara viticola; conditions: vines cultivar Riesling, protective spray
Procedure: as §1, §2, §3, §4, §5
The next day, the undersides of the leaves were inoculated with an aqueous zoospore suspension of Plasmopara viticola. The grapevines were then initially placed in a water-vapor-saturated chamber at 24° C. for 48 hours and then in a greenhouse at 20-30° C. for 5 days. After this period of time, the plants were again placed in a humid chamber for 16 hours to promote sporangiophore eruption. The extent of the development of the disease on the undersides of the leaves was then determined visually.

CC1CCN(c2c(-c3c(F)cc(F)cc3F)c(Cl)nc3ncnn23)CC1 [I, 5-chloro-7-(4-methylpiperidin-1-yl)-6-(2,4,6-trifluorophenyl)-[1,2,4]triazolo[1,5-a]pyrimidine]
Efficacy in % of the untreated control (Corticium sasakii; 4 ppm in the spray liquor): 30%
Efficacy in % of the untreated control (Plasmopara viticola; 4 ppm in the spray liquor): 21%
Efficacy in % of the untreated control (Plasmopara viticola; 16 ppm in the spray liquor): 44%

CO/N=C(/C1=NOCCO1)c1ccccc1Oc1ncnc(Oc2ccccc2Cl)c1F [II (fluoxastrobin), {2-[6-(2-chlorophenoxy)-5-fluoropyrimidin-4-yloxy]phenyl}-(5,6-dihydro-[1,4,2]dioxazin-3-yl)methanon O-methyl oxime]
Efficacy in % of the untreated control (Corticium sasakii; 1 ppm in the spray liquor): 0%
Efficacy in % of the untreated control (Corticium sasakii; 16 ppm in the spray liquor): 18%
Efficacy in % of the untreated control (Plasmopara viticola; 4 ppm in the spray liquor): 21%
Efficacy in % of the untreated control (Plasmopara viticola; 16 ppm in the spray liquor): 55%
